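Cells were grown in 96-well plates and exposed to each compound for 48 hours at five concentrations; endpoints were interpolated linearly between bracketing concentrations, or set to the highest concentration if not reached. GI50 marks 50% less growth.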 Active and inactive are the calls of the source. No stated cut-off is given here; in the data, active = GI50 up to about 1.1 µM and inactive = higher.
What was measured:
Assay in all cases: growth of human tumour cells (NCI), 48 h
HOP-92 = system: HOP-92
PC-3 = system: PC-3
UO-31 = system: UO-31
OVCAR-8 = system: OVCAR-8
T47D = system: T47D
OVCAR-4 = system: OVCAR-4
ACHN = system: ACHN
EKVX = system: EKVX
Malme-3M = system: Malme-3M
DMS-114 = system: DMS-114
OVCAR-5 = system: OVCAR-5
NCI-H226 = system: NCI-H226
M14 = system: M14
SK-MEL-2 = system: SK-MEL-2
CAKI-1 = system: CAKI-1
NCI/ADR-RES = system: NCI/ADR-RES
SR = system: SR
SK-MEL-5 = system: SK-MEL-5
COLO 205 = system: COLO 205
HL-60 = system: HL-60

C=C(OC1C(C)=C2C(C1OC(=O)CCCCCCC)C(C)(OC(C)=O)CC(OC(=O)CCC)C1(O)C2OC(=O)C1(C)O)/C(C)=C/C (stereo not given)
GI50 (HOP-92): 0.0125 µM (active) | GI50 (PC-3): < 0.0001 µM (active) | GI50 (UO-31): 0.115 µM (active) | GI50 (OVCAR-8): 0.0125 µM (active) | GI50 (T47D): 0.000135 µM (active) | GI50 (OVCAR-4): 0.0125 µM (active) | GI50 (ACHN): 0.000585 µM (active) | GI50 (EKVX): 0.0334 µM (active) | GI50 (Malme-3M): 0.0125 µM (active) | GI50 (DMS-114): 0.0125 µM (active) | GI50 (OVCAR-5): 0.034 µM (active) | GI50 (NCI-H226): 0.0641 µM (active) | GI50 (M14): < 0.0001 µM (active) | GI50 (SK-MEL-2): 0.0125 µM (active) | GI50 (CAKI-1): 0.0125 µM (active) | GI50 (NCI/ADR-RES): 0.478 µM (active) | GI50 (SR): 0.000145 µM (active) | GI50 (SK-MEL-5): 0.0125 µM (active)

O.O=C([O-])c1ccccc1Nc1ccccc1C(=O)[O-].[Zn+2]
GI50 (HOP-92): 18.7 µM (inactive) | GI50 (UO-31): > 44.7 µM (inactive) | GI50 (OVCAR-8): 26.9 µM (inactive) | GI50 (OVCAR-4): 19.8 µM (inactive) | GI50 (ACHN): > 100 µM (inactive) | GI50 (EKVX): 24.7 µM (inactive) | GI50 (Malme-3M): 23.2 µM (inactive) | GI50 (DMS-114): 17.5 µM (inactive) | GI50 (OVCAR-5): 28.2 µM (inactive) | GI50 (NCI-H226): 31 µM (inactive) | GI50 (M14): 35.1 µM (inactive) | GI50 (SK-MEL-2): 20.7 µM (inactive) | GI50 (CAKI-1): 5.08 µM (inactive) | GI50 (COLO 205): > 49.7 µM (inactive) | GI50 (SR): 19 µM (inactive) | GI50 (HL-60): 23.7 µM (inactive) | GI50 (SK-MEL-5): 25.5 µM (inactive)

O=C1c2ccccc2C(=O)c2c(/C=C\N3CCCCC3)ccnc21
GI50 (HOP-92): 9.18 µM (inactive) | GI50 (PC-3): 0.879 µM (active) | GI50 (UO-31): 2.01 µM (inactive) | GI50 (OVCAR-8): 2.15 µM (inactive) | GI50 (T47D): 2.97 µM (inactive) | GI50 (OVCAR-4): 9.57 µM (inactive) | GI50 (ACHN): 5.69 µM (inactive) | GI50 (EKVX): 15.2 µM (inactive) | GI50 (Malme-3M): 0.661 µM (active) | GI50 (DMS-114): 0.813 µM (active) | GI50 (OVCAR-5): 5.38 µM (inactive) | GI50 (NCI-H226): 2.7 µM (inactive) | GI50 (M14): 0.578 µM (active) | GI50 (SK-MEL-2): 3.72 µM (inactive) | GI50 (CAKI-1): 16.9 µM (inactive) | GI50 (NCI/ADR-RES): 3.6 µM (inactive) | GI50 (COLO 205): 3.51 µM (inactive) | GI50 (SR): 8.36 µM (inactive) | GI50 (HL-60): 3.01 µM (inactive) | GI50 (SK-MEL-5): 0.42 µM (active)

NC(=O)c1nnn(Cc2cc(Cl)c(C(=O)c3ccc(Cl)cc3)c(Cl)c2)c1N [CARBOXYAMIDOTRIAZOLE]
GI50 (HOP-92): 32 µM (inactive) | GI50 (PC-3): 19.5 µM (inactive) | GI50 (UO-31): 25.6 µM (inactive) | GI50 (OVCAR-8): 24.1 µM (inactive) | GI50 (T47D): 17.7 µM (inactive) | GI50 (OVCAR-4): 22 µM (inactive) | GI50 (ACHN): 9.46 µM (inactive) | GI50 (EKVX): 16.8 µM (inactive) | GI50 (Malme-3M): 27.5 µM (inactive) | GI50 (DMS-114): 6.1 µM (inactive) | GI50 (OVCAR-5): 34.5 µM (inactive) | GI50 (NCI-H226): 33 µM (inactive) | GI50 (M14): 19.6 µM (inactive) | GI50 (SK-MEL-2): 11.1 µM (inactive) | GI50 (CAKI-1): 12.4 µM (inactive) | GI50 (NCI/ADR-RES): 32.1 µM (inactive) | GI50 (COLO 205): 27.8 µM (inactive) | GI50 (SR): 6.75 µM (inactive) | GI50 (HL-60): 14.8 µM (inactive) | GI50 (SK-MEL-5): 5.96 µM (inactive)

Source: ChEMBL document CHEMBL1201862, “PubChem BioAssay data set” (2004)
